This assay addresses human D3R (Homo sapiens, UniProt P35462). Kind of assay: [3H]-spiperone filtration binding assay on membranes from CHO–hDRD3 cells. Particulars: for inhibition at 10 µM: read-out: Inhibition Rate at 10 µM.

Usually IC50 stands for the midpoint of a concentration-inhibition curve. Low readings indicate inhibition by little substance, high ones a need for much substance. As a reminder, the inhibition is how much of the control response was suppressed.

human D3R, sequence (P35462 whole entry): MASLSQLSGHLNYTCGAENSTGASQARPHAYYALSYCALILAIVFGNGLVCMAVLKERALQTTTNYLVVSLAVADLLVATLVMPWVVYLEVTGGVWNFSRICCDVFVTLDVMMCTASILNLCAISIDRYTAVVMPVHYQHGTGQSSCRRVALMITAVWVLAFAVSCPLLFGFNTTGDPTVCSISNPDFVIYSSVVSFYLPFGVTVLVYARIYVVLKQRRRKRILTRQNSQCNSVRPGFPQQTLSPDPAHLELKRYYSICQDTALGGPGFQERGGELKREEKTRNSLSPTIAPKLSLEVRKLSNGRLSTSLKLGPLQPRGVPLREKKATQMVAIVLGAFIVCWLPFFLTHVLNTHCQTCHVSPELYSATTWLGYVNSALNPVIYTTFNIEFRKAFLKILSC
Experimental: CHO-K1 cells expressing human D3R (CHO–hDRD3; HD Euroscreen Fast, Brussels, Belgium) were homogenized in 4× v/w buffer (15 mM Tris, 2 mM MgCl2, 0.3 mM EDTA, 1 mM EGTA, pH = 7.4 at 25 °C) with a Dounce tissue grinder and centrifuged at 40,000× g at 4 °C for 25 min. The supernatant was removed, and the pellet was resuspended in 4× v/w buffer and recentrifuged. […] The preparations were then aliquoted and stored at −70 °C [11].
The aliquoted membranes were thawed and washed once in binding buffer (50 mM Tris HCl, 5 mM MgCl2, 5 mM KCl, 1 mM CaCl2, 120 mM NaCl, and 1mM EDTA). […] The incubations were carried out for 120 min at 25 °C in 250 µL in individual wells of a 96-well deep-well plate. […] Non-specific binding was determined in the presence of 10 mM haloperidol. After incubation, the samples were filtered over UniFilter GF/B^TM using PerkinElmer Harvester and washed with 4 × 1 mL ice-cold binding buffer. The plate was dried at 40 °C for 1 h and 40 µL MicroScint scintillation cocktail (PerkinElmer) was added to each well. […] Specific radioligand binding was defined as the difference between total binding and non-specific binding determined in the presence of excess haloperidol. Inhibition percentage (%) = (total binding counts − test compounds binding counts)/(total binding counts—non-specific binding counts) [11].

Consider `Cc1ccc(-c2c3c(=O)n(C)c(=O)n(C)c3c3n2C(C)(C)CO[C@H]3c2ccc(C)cc2O)cc1` [Compound D280-0447], for which the IC50 is 1250 nM and the inhibition at 10 µM was 99.3%.
`Cc1nc(Nc2ccc(NC(=O)Nc3ccc4c(c3)OCCO4)cc2)cc(NC2CCCCC2)n1` [Compound D638-0102]: the IC50 came out at 1480 nM and the inhibition at 10 µM was 93.6%.
With `Cc1ccc(SCc2nc(-c3ccc(C(=O)Nc4ccc5c(c4)OCO5)cc3)oc2C)cc1` [Compound E776-0059], the IC50 turned out to be 970 nM and the inhibition at 10 µM was 96.9%.
For `Cc1ccc(CNC(=O)c2ccc3c(=O)n(-c4ccc(C)cc4)c(N4CCCC4)nc3c2)cc1` [Compound F072-0905] the same measures were 1410 nM and 99.5%.
Regarding `Cc1oc(-c2ccc(C(=O)NCc3ccccc3)cc2)nc1CN1CCc2ccccc21` [Compound G373-0280], the “Inhibition Rate at 10 µM” value (10 µM test compound, displacement of [3H]-spiperone) is recorded as 74.8%.
As to `Cc1cc(N2CCC(C(=O)N[C@@H]3CCCc4ccccc43)CC2)n2nc(-c3ccccc3)cc2n1` [Compound L227-1012], the IC50 was determined as 1490 nM and the inhibition at 10 µM stood at 94.8%.

Values taken from paper PMC9862751, “Identifying Dopamine D3 Receptor Ligands through Virtual Screening and Exploring the Binding Modes of Hit Compounds” (Molecules, 2023).
